How the values were obtained:
[1] = Compound 2 solubility in solvents and buffers (saturated, 24 h shaking, HPLC); assay type: physicochemical; details: 50 mM phosphate buffer, aqueous buffer, thermodynamic from solid; pH 3 buffer (phosphate, 50 mM)
[2] = Compound 2 solution stability, one week (HPLC % purity); assay type: physicochemical; details: for Δ% Purity at 5° C. / Δ% Purity at 25° C./60% RH: 1 week; for Initial % Purity: t=0
Description: The above analysis was taken as t=0 and the samples were then divided in two and one of each sample was stored at 5° C. for one week and the other of each sample was stored at 25° C./60% relative humidity (RH) for one week.
After one week, the samples were allowed to equilibrate to room temperature and if required (H2O and pH 7-9 samples stored at 5° C.) refiltered to remove precipitate.
The samples were reanalyzed by HPLC.

[3] = Pharmacokinetics in male beagle dogs after a single oral dose (plasma Compound 1); details: dog, 10 mg/kg
Description: The study was designed to compare the PK profiles of the following four forms of Compound 1 administered as single oral capsules in fasted state. […] There was a washout period of 4 days between dosing. The blood samples were collected from each animal at predetermined times on the study Days 1, 4, 8 and 11. The plasma was analyzed for Compound 1 by a validated HPLC-MS/MS assay.
Descriptive PK parameters were determined by standard model independent methods (Gibaldi and Perrier, 1982) based on the individual plasma concentration-time data. Plasma concentrations were rounded to 3 significant figures. Plasma samples with concentrations below the quantifiable assay limit (BQL<2.00 ng/mL) were assigned values of zero for mean calculations. For PK calculations, BQL was set to zero from the pre-dose time up to the time of the first quantifiable concentration and thereafter was set as missing. Nominal time points were used for all calculations. • Cmax is the observed maximum plasma concentration after dosing. • Tmax is the time to reach Cmax. • T1/2 is apparent half-life calculated by ln(2)/λ where λ is the rate constant fix the log-linear portion of the terminal phase. A minimum of three values in the post-distribution phase of the plasma concentration-time curve is required for calculation of X. • AUC(0-T) is the area under the plasma concentration-time curve from time zero to the time of the last measurable plasma concentration determined using the linear trapezoidal rule. • AUC(0-inf) is the area under the plasma concentration-time curve from time zero to infinity. It is calculated by summing AUC(0-T) and the extrapolated area from the T to infinity.
PK analyses were performed by noncompartmental analysis using model 200 in WinNonlin Professional 6.1 (Pharsight Corp., Mountain View, Calif.).

[4] = Table 42 summary, mean, dogs, single oral 10 mg/kg, plasma Compound 1
[5] = dog 301, single oral 10 mg/kg dose, plasma Compound 1
[6] = dog 302, single oral 10 mg/kg dose, plasma Compound 1
[7] = dog 303, single oral 10 mg/kg dose, plasma Compound 1
[8] = dog 304, single oral 10 mg/kg dose, plasma Compound 1
[9] = mean of dogs, single oral 10 mg/kg dose, plasma Compound 1

## COc1ccc2c(c1OCc1ccccc1)C[C@@H](C(=O)[O-])N(C(=O)C(c1ccccc1)c1ccccc1)C2.[Na+] [Compound 2, sodium salt of (S)-2-(diphenylacetyl)-1,2,3,4-tetrahydro-6-methoxy-5-(phenylmethoxy)-3-isoquinoline carboxylic acid]
[1]
  solubility at 24 h: < 1 µg/mL
[2]; pH 6 buffer solution
  t = 1 week % Purity at 5° C.: 87.02%
  t = 1 week % Purity at 25° C./60% RH: 88.98%
  Δ% Purity at 5° C.: −1.35%
  Δ% Purity at 25° C./60% RH: +0.61%
  Initial % Purity: 88.37%
[2]; pH 7 buffer solution
  t = 1 week % Purity at 5° C.: 74.27%
  t = 1 week % Purity at 25° C./60% RH: 76.52%
  Δ% Purity at 5° C.: −1.85%
  Δ% Purity at 25° C./60% RH: +0.40%
  Initial % Purity: 76.12%
[2]; pH 8 buffer solution
  t = 1 week % Purity at 5° C.: 81.45%
  t = 1 week % Purity at 25° C./60% RH: 86.70%
  Δ% Purity at 5° C.: −4.09%
  Δ% Purity at 25° C./60% RH: +1.16%
  Initial % Purity: 85.54%
[2]; pH 9 buffer solution
  t = 1 week % Purity at 5° C.: 89.17%
  t = 1 week % Purity at 25° C./60% RH: 91.60%
  Δ% Purity at 5° C.: −2.07%
  Δ% Purity at 25° C./60% RH: +0.36%
  Initial % Purity: 91.24%
[2]; solution in ACN
  t = 1 week % Purity at 5° C.: 97.50%
  t = 1 week % Purity at 25° C./60% RH: 97.46%
  Δ% Purity at 5° C.: 0.00%
  Δ% Purity at 25° C./60% RH: −0.04%
  Initial % Purity: 97.50%
[2]; solution in H2O
  t = 1 week % Purity at 5° C.: 94.66%
  t = 1 week % Purity at 25° C./60% RH: 95.67%
  Δ% Purity at 5° C.: −0.92%
  Δ% Purity at 25° C./60% RH: +0.09%
  Initial % Purity: 95.58%
[2]; solution in IPA
  t = 1 week % Purity at 5° C.: 89.59%
  t = 1 week % Purity at 25° C./60% RH: 90.51%
  Δ% Purity at 5° C.: +0.31%
  Δ% Purity at 25° C./60% RH: +1.23%
  Initial % Purity: 89.28%
[2]; solution in MeOH
  t = 1 week % Purity at 5° C.: 97.52%
  t = 1 week % Purity at 25° C./60% RH: 97.39%
  Δ% Purity at 5° C.: +0.13%
  Δ% Purity at 25° C./60% RH: 0.00%
  Initial % Purity: 97.39%
[3]; [4]
  AUC(0-t): 1840 ng·h/mL
  AUC(0-inf): 1840 ng·h/mL
[3]; [5]
  AUC(0-t): 1290 ng·h/mL
  AUC(0-inf): 1300 ng·h/mL
[3]; [6]
  AUC(0-t): 2350 ng·h/mL
  AUC(0-inf): 2350 ng·h/mL
[3]; [7]
  AUC(0-t): 1520 ng·h/mL
  AUC(0-inf): 1520 ng·h/mL
[3]; [8]
  AUC(0-t): 2180 ng·h/mL
  AUC(0-inf): 2220 ng·h/mL
[3]; [9]
  AUC(0-t): 1830 ng·h/mL
  AUC(0-inf): 1840 ng·h/mL
[3]; Cmax, dog 301, single oral 10 mg/kg dose, plasma Compound 1
  Cmax: 1110 ng/mL
[3]; Cmax, dog 302, single oral 10 mg/kg dose, plasma Compound 1
  Cmax: 1220 ng/mL
[3]; Cmax, dog 303, single oral 10 mg/kg dose, plasma Compound 1
  Cmax: 1750 ng/mL
[3]; Cmax, dog 304, single oral 10 mg/kg dose, plasma Compound 1
  Cmax: 2270 ng/mL
[3]; Cmax, mean of dogs, single oral 10 mg/kg dose, plasma Compound 1
  Cmax: 1590 ng/mL
[3]; Mean harmonic T1/2, male beagle dogs, single oral 10 mg/kg capsule, fasted, Compound 1 in plasma
  half-life: 2.49 ± 0.391 h
[3]; T1/2, Table 42 summary, harmonic mean, dogs, single oral 10 mg/kg, plasma Compound 1
  half-life: 2.49 h
[3]; T1/2, dog 301, single oral 10 mg/kg dose, plasma Compound 1
  half-life: 2.51 h
[3]; T1/2, dog 302, single oral 10 mg/kg dose, plasma Compound 1
  half-life: 2.73 h
[3]; T1/2, dog 303, single oral 10 mg/kg dose, plasma Compound 1
  half-life: 2.05 h
[3]; T1/2, dog 304, single oral 10 mg/kg dose, plasma Compound 1
  half-life: 2.81 h
[3]; T1/2, harmonic mean of dogs, single oral 10 mg/kg dose, plasma Compound 1
  half-life: 2.49 h
[3]; Tmax, Table 42 summary, median, dogs, single oral 10 mg/kg, plasma Compound 1
  Tmax: 0.75 h
[3]; Tmax, dog 301, single oral 10 mg/kg dose, plasma Compound 1
  Tmax: 0.75 h
[3]; Tmax, dog 302, single oral 10 mg/kg dose, plasma Compound 1
  Tmax: 1 h
[3]; Tmax, dog 303, single oral 10 mg/kg dose, plasma Compound 1
  Tmax: 0.75 h
[3]; Tmax, dog 304, single oral 10 mg/kg dose, plasma Compound 1
  Tmax: 0.5 h
[3]; Tmax, median of dogs (Mean column), single oral 10 mg/kg dose, plasma Compound 1
  Tmax: 0.75 h
[3]; mean Cmax, male beagle dogs, single oral 10 mg/kg capsule, fasted, Compound 1 in plasma, mean±SD
  Cmax: 1590 ± 534 ng/mL
[3]; median Tmax, male beagle dogs, single oral 10 mg/kg capsule, fasted, Compound 1 in plasma
  Tmax: 0.75 h

— patent publication US8614227B2, “Salt and solvates of a tetrahydroisoquinoline derivative” (Spinifex Pharmaceuticals Pty Ltd, priority 2010, dated 2013)
